Test results as given in patent publication EP4745130A1, “CRYSTAL FORMS OF TUBULIN-SRC DUAL-TARGETING INHIBITOR, PREPARATION METHOD THEREFOR AND USE THEREOF” (Hubei Bio-Pharmaceutical Industrial Technological Institute …, priority 2023, dated 2025).
Read-outs that look alike come from different tables or passages of the source.

Tests used:
[1] = Thermodynamic solubility test; type: physicochemical; details: for solubility: thermodynamic from solid, 4 mg/mL, overnight at room temperature
Procedure: Phosphate buffer saline (PBS) with a pH of 7.4, FeSSIF solution with a pH of 6.5, and FaSSGF solution with a pH of 1.6 were prepared. The compound was accurately weighed and added to prepared phosphate buffer saline with a pH of 7.4, FeSSIF solution with a pH of 6.5, and FaSSGF solution with a pH of 1.6 to prepare into a solution with a concentration of 4 mg/mL. The solution was shaken at a speed of 1000 rpm for 1 hour, and then incubated overnight at room temperature. The incubated solution was centrifuged at 12,000 rpm for 10 minutes to remove undissolved particles, and the supernatant was transferred to a new centrifuge tube. After the supernatant was appropriately diluted, an acetonitrile solution containing internal standard was added, and a standard curve prepared with the same matrix was used for quantification. Table 42: Thermodynamic solubility test results

[2] = Pharmacokinetic test in mice; type: in vivo
Procedure: For the pharmacokinetic test in mice, 3 male ICR mice, 20 to 25 g, were used, fasted overnight, and administered by tail vein injection (1 mg/kg or 5 mg/kg). Blood was collected before the administration, and at 15 min, 30 min, 1 hour, 2 hours, 4 hours, 8 hours, and 24 hours after the administration. Another 3 mice were taken and administered by oral gavage (5 mg/kg), and blood was collected before the administration, and at 15 min, 30 min, 1 hour, 2 hours, 4 hours, 8 hours, and 24 hours after the administration. Blood samples were centrifuged at 6800 g at 2 to 8°C for 6 min, and plasma was collected and stored at -80°C. The plasma at each time point was taken and added with an acetonitrile solution containing internal standard in 3 to 5 times the amount. The mixture was vortexed and mixed for 1 min, and centrifuged at 13,000 rpm at 4°C for 10 min. The supernatant was collected, added with water in 3 times the amount, and mixed. An appropriate amount of the mixture was taken for LC-MS/MS analysis. The main pharmacokinetic parameters were analyzed using WinNonlin 7.0 software with non-compartmental model. Table 43: Results 1 of pharmacokinetic tests in mice

[3] = mouse, plasma, male ICR mice, intravenous injection administration (1 mg/kg)
[4] = mouse, plasma, male ICR mice, oral gavage administration (5 mg/kg)

Q: With `Cc1cc(OCCN2C[C@H]3COC[C@H]3C2)ccc1-c1ccc(CC(=O)NCc2ccccc2)nc1` [Compound of Formula I, N-benzyl-2-(5-(2-methyl-4-(2-((3aR,6aS)-tetrahydro-1H-furo[3,4-c]pyrrol-5(3H)-yl)ethoxy)phenyl)pyridin-2-yl)acetamide] as the compound, how does the solubility ([1]; FeSSIF solution, FeSSIF (pH 6.5), read-out: Solubility (µg/mL) FeSSIF (pH 6.5)) read?
A: 650 µg/mL

Q: And the thermodynamic solubility ([1]; in words, under neutral conditions, compared with the control compound)?
A: greater thermodynamic solubility

Q: What about the solubility ([1]; phosphate buffer saline (PBS), aqueous buffer, PBS (pH 7.4), read-out: Solubility (µg/mL) PBS (pH 7.4)) of the same compound?
A: 101 µg/mL

Q: And the “metabolism in mice in vivo” value ([2]; in words, compared with the control compound)?
A: rapid metabolism

Q: What about the AUC(0-t) [2, 3] of the same compound?
A: 430 ng·h/mL

Q: What about the clearance [2, 3] of the same compound?
A: 34.5 mL/min/kg

Q: What about the AUC(0-t) [2, 4] of the same compound?
A: 443 ng·h/mL

Q: And the Cmax [2, 4]?
A: 322 ng/mL
